Experimental data from paper PMC5007552, “The hVps34‐SGK3 pathway alleviates sustained PI3K/Akt inhibition by stimulating mTORC1 and tumour growth” (The EMBO Journal, 2016).
Where “and” joins values, the source holds several entries; their conditions need not be identical. Identical values can stand only once.

Test system: ZR-75-1 cells
Assay: NanoString human kinome mRNA quantification
Assay type: cell-based
Excerpt: Human mRNAs were hybridised to NanoString human kinome and control code sets, then subjected to quantification using NanoString software. […] To permit data compaction, and simple kinome‐wide comparisons, the fold changes are log2 transformed. […] Cell pellets were resuspended at a concentration of ~6,500 cells/μl in RLT buffer (Qiagen). […] For total copy numbers, triplicate normalised count values were averaged, and to calculate fold induction, means were divided by triplicate mean values from matched DMSO controls. P‐values were calculated using unpaired t‐test (GraphPad Prism software) by employing treated and control count data for each kinase mRNA.

NC1(c2ccc(-c3nc4ccn5c(=O)[nH]nc5c4cc3-c3ccccc3)cc2)CCC1 [MK-2206] was tested, and the “MAP2K6 Normalised counts (single replicates)” value (MAP2K6 mRNA, replicates 1-3) was 273.54 and 301.57, the “MAP2K7 Normalised counts Average” value (MAP2K7 mRNA, average of 3) was 452.7 and the “MAP2K7 Normalised counts (single replicates)” value (MAP2K7 mRNA, replicates 1-3) was 481.41 and 429.05 and 447.64. For the same molecule, the “MAP3K1 Normalised counts Average” value (MAP3K1 mRNA, average of 3) was 914.477, the “MAP3K1 Normalised counts (single replicates)” value (MAP3K1 mRNA, replicates 1-3) was 890.44 and 933.79 and 919.2 and the “MAP3K2 Normalised counts Average” value (MAP3K2 mRNA, average of 3) was 686.32. For the same molecule, the “MAP3K2 Normalised counts (single replicates)” value (MAP3K2 mRNA, replicates 1-3) was 635.93 and 734.85 and 688.18, the “MAP3K3 Normalised counts Average” value (MAP3K3 mRNA, average of 3) was 686.967 and the “MAP3K3 Normalised counts (single replicates)” value (MAP3K3 mRNA, replicates 1-3) was 685.93 and 665.35 and 709.62. The “MAP3K4 Normalised counts Average” value (MAP3K4 mRNA, average of 3) was 878.993, the “MAP3K4 Normalised counts (single replicates)” value (MAP3K4 mRNA, replicates 1-3) was 874.08 and 929.44 and 833.46 and the “MAP3K5 Normalised counts Average” value (MAP3K5 mRNA, average of 3) was 52.5933. For the same molecule, the “MAP3K5 Normalised counts (single replicates)” value (MAP3K5 mRNA, replicates 1-3) was 46.02 and 55.49 and 56.27, the “MAP3K6 Normalised counts Average” value (MAP3K6 mRNA, average of 3) was 449.24 and the “MAP3K6 Normalised counts (single replicates)” value (MAP3K6 mRNA, replicates 1-3) was 420.51 and 453.37 and 473.84. The “MAP3K7 Normalised counts Average” value (MAP3K7 mRNA, average of 3) was 743.277, the “MAP3K7 Normalised counts (single replicates)” value (MAP3K7 mRNA, replicates 1-3) was 716.83 and 700.97 and 812.03 and the “MAP3K8 Normalised counts Average” value (MAP3K8 mRNA, average of 3) was 26.4033. The “MAP3K8 Normalised counts (single replicates)” value (MAP3K8 mRNA, replicates 1-3) was 26.93 and 28.56 and 23.72, the “MAP3K9 Normalised counts Average” value (MAP3K9 mRNA, average of 3) was 379.6 and the “MAP3K9 Normalised counts (single replicates)” value (MAP3K9 mRNA, replicates 1-3) was 365.97 and 402.99 and 369.84. For the same molecule, the “MAP3K10 Normalised counts Average” value (MAP3K10 mRNA, average of 3) was 168.847, the “MAP3K10 Normalised counts (single replicates)” value (MAP3K10 mRNA, replicates 1-3) was 162.36 and 182.33 and 161.85 and the “MAP3K11 Normalised counts Average” value (MAP3K11 mRNA, average of 3) was 121.413. For the same molecule, the “MAP3K11 Normalised counts (single replicates)” value (MAP3K11 mRNA, replicates 1-3) was 113.28 and 123.25 and 127.71, the “MAP3K12 Normalised counts Average” value (MAP3K12 mRNA, average of 3) was 52.4667 and the “MAP3K12 Normalised counts (single replicates)” value (MAP3K12 mRNA, replicates 1-3) was 51.47 and 61.57 and 44.36. The “MAP3K13 Normalised counts Average” value (MAP3K13 mRNA, average of 3) was 189.707, the “MAP3K13 Normalised counts (single replicates)” value (MAP3K13 mRNA, replicates 1-3) was 181.45 and 198.83 and 188.84 and the “MAP3K14 Normalised counts Average” value (MAP3K14 mRNA, average of 3) was 43.9833. For the same molecule, the “MAP3K14 Normalised counts (single replicates)” value (MAP3K14 mRNA, replicates 1-3) was 37.84 and 44.2 and 49.91, the “MAP3K15 Normalised counts Average” value (MAP3K15 mRNA, average of 3) was 13.0267 and the “MAP3K15 Normalised counts (single replicates)” value (MAP3K15 mRNA, replicates 1-3) was 12.38 and 17.27 and 9.43. The “MAP4K1 Normalised counts Average” value (MAP4K1 mRNA, average of 3) was 25.6067, the “MAP4K1 Normalised counts (single replicates)” value (MAP4K1 mRNA, replicates 1-3) was 20.57 and 28.56 and 27.69 and the “MAP4K2 Normalised counts Average” value (MAP4K2 mRNA, average of 3) was 517.167. The “MAP4K2 Normalised counts (single replicates)” value (MAP4K2 mRNA, replicates 1-3) was 521.4 and 514.19 and 515.91, the “MAP4K3 Normalised counts Average” value (MAP4K3 mRNA, average of 3) was 998.393 and the “MAP4K3 Normalised counts (single replicates)” value (MAP4K3 mRNA, replicates 1-3) was 947.71 and 1044.12 and 1003.35. The “MAP4K4 Normalised counts Average” value (MAP4K4 mRNA, average of 3) was 871.587, the “MAP4K4 Normalised counts (single replicates)” value (MAP4K4 mRNA, replicates 1-3) was 808.64 and 924.23 and 881.89 and the “MAP4K5 Normalised counts Average” value (MAP4K5 mRNA, average of 3) was 2400.42. The “MAP4K5 Normalised counts (single replicates)” value (MAP4K5 mRNA, replicates 1-3) was 2332.97 and 2437.58 and 2430.72, the “MAPK1 Normalised counts Average” value (MAPK1 mRNA, average of 3) was 3519.07 and the “MAPK1 Normalised counts (single replicates)” value (MAPK1 mRNA, replicates 1-3) was 3459.18 and 3429.68 and 3668.36. The “MAPK3 Normalised counts Average” value (MAPK3 mRNA, average of 3) was 2954.55, the “MAPK3 Normalised counts (single replicates)” value (MAPK3 mRNA, replicates 1-3) was 2922.89 and 2952.74 and 2988.02 and the “MAPK4 Normalised counts Average” value (MAPK4 mRNA, average of 3) was 4.88. For the same molecule, the “MAPK4 Normalised counts (single replicates)” value (MAPK4 mRNA, replicates 1-3) was 3.29 and 5.1 and 6.25, the “MAPK6 Normalised counts Average” value (MAPK6 mRNA, average of 3) was 1788.65 and the “MAPK6 Normalised counts (single replicates)” value (MAPK6 mRNA, replicates 1-3) was 1729.42 and 1778.2 and 1858.34. For the same molecule, the “MAPK7 Normalised counts Average” value (MAPK7 mRNA, average of 3) was 144.45, the “MAPK7 Normalised counts (single replicates)” value (MAPK7 mRNA, replicates 1-3) was 156 and 134.55 and 142.8 and the “MAPK8 Normalised counts Average” value (MAPK8 mRNA, average of 3) was 551.453. The “MAPK8 Normalised counts (single replicates)” value (MAPK8 mRNA, replicates 1-3) was 558.67 and 556.75 and 538.94, the “MAPK9 Normalised counts Average” value (MAPK9 mRNA, average of 3) was 3428.01 and the “MAPK9 Normalised counts (single replicates)” value (MAPK9 mRNA, replicates 1-3) was 3385.55 and 3472.25 and 3426.23. The “MAPK10 Normalised counts Average” value (MAPK10 mRNA, average of 3) was 51.74, the “MAPK10 Normalised counts (single replicates)” value (MAPK10 mRNA, replicates 1-3) was 66.92 and 32.03 and 56.27 and the “MAPK11 Normalised counts Average” value (MAPK11 mRNA, average of 3) was 204.103. For the same molecule, the “MAPK11 Normalised counts (single replicates)” value (MAPK11 mRNA, replicates 1-3) was 193.27 and 212.73 and 206.31, the “MAPK12 Normalised counts Average” value (MAPK12 mRNA, average of 3) was 217.317 and the “MAPK12 Normalised counts (single replicates)” value (MAPK12 mRNA, replicates 1-3) was 225.99 and 210.13 and 215.83. For the same molecule, the “MAPK13 Normalised counts Average” value (MAPK13 mRNA, average of 3) was 1105.76, the “MAPK13 Normalised counts (single replicates)” value (MAPK13 mRNA, replicates 1-3) was 1118.59 and 1094.51 and 1104.17 and the “MAPK14 Normalised counts Average” value (MAPK14 mRNA, average of 3) was 677.43. The “MAPK14 Normalised counts (single replicates)” value (MAPK14 mRNA, replicates 1-3) was 691.38 and 666.22 and 674.69, the “MAPK15 Normalised counts Average” value (MAPK15 mRNA, average of 3) was 105.53 and the “MAPK15 Normalised counts (single replicates)” value (MAPK15 mRNA, replicates 1-3) was 90.56 and 110.22 and 115.81. For the same molecule, the “MAPKAPK2 Normalised counts Average” value (MAPKAPK2 mRNA, average of 3) was 1630.94, the “MAPKAPK2 Normalised counts (single replicates)” value (MAPKAPK2 mRNA, replicates 1-3) was 1646.7 and 1595.77 and 1650.35 and the “MAPKAPK3 Normalised counts Average” value (MAPKAPK3 mRNA, average of 3) was 413.777. The “MAPKAPK3 Normalised counts (single replicates)” value (MAPKAPK3 mRNA, replicates 1-3) was 380.52 and 429.05 and 431.76, the “MAPKAPK5 Normalised counts Average” value (MAPKAPK5 mRNA, average of 3) was 1446.88 and the “MAPKAPK5 Normalised counts (single replicates)” value (MAPKAPK5 mRNA, replicates 1-3) was 1508.54 and 1415.94 and 1416.16. The “MARK1 Normalised counts Average” value (MARK1 mRNA, average of 3) was 415.69, the “MARK1 Normalised counts (single replicates)” value (MARK1 mRNA, replicates 1-3) was 399.6 and 430.79 and 416.68 and the “MARK2 Normalised counts Average” value (MARK2 mRNA, average of 3) was 1522.43. The “MARK2 Normalised counts (single replicates)” value (MARK2 mRNA, replicates 1-3) was 1510.36 and 1537.56 and 1519.36, the “MARK3 Normalised counts Average” value (MARK3 mRNA, average of 3) was 1279.49 and the “MARK3 Normalised counts (single replicates)” value (MARK3 mRNA, replicates 1-3) was 1275.85 and 1283.02 and 1279.61. For the same molecule, the “MARK4 Normalised counts Average” value (MARK4 mRNA, average of 3) was 1238.46, the “MARK4 Normalised counts (single replicates)” value (MARK4 mRNA, replicates 1-3) was 1216.76 and 1258.7 and 1239.92 and the “MAST1 Normalised counts Average” value (MAST1 mRNA, average of 3) was 64.11. For the same molecule, the “MAST1 Normalised counts (single replicates)” value (MAST1 mRNA, replicates 1-3) was 68.74 and 54.62 and 68.97 and the “MAST2 Normalised counts Average” value (MAST2 mRNA, average of 3) was 721.127.
